In patent US4303785A, “Antitumor anthracycline antibiotics” (priority 1978, dated 1981):
Values after ≈ are worked out from the molar mass of the structure shown. Where two headings read alike, the source gives them in different places.

What was measured:
L1210 leukemia cells = experiment: Growth inhibitory effect on L1210 cells in culture (Table 4); assay type: cell-based; conditions: for inhibition at 0.1 µg/mL / inhibition at 0.5 µg/mL: Mus musculus, read-out: Inhibition Rate (growth); for inhibition at 0.1 µg/mL: L1210, 0.1 μg./ml.; for inhibition at 0.5 µg/mL: L1210, 0.5 μg./ml.
Experimental: For example, L1210 cells (5×10^4 cells/ml.) were inoculated in RPMI 1640 medium (Roswell Park Memorial Institute 1640) containing 20% calf serum and cultivated at 37° C. in the presence of 0.1 and 0.5 μg./ml. of the test compounds in a CO2 incubator.

L1210 cells = experiment: Inhibition of 14C-uridine and 14C-thymidine incorporation (nucleic acid synthesis) in L1210 cells in culture (Table 5); assay type: cell-based; conditions: 60 min. at 37° C.; for IC50: Mus musculus, L1210, 1 h
Experimental: The effect of the tetrahydropyranyl ether derivatives of formula I' on nucleic acid synthesis was examined as follows: […]
1×10^5 cells/ml. of L1210 cells were suspended in RPMI medium containing 10% calf serum, pre-cultivated at 37° C. for 1 to 2 hours in a CO2 incubator and then the test compounds were added to the medium at various concentrations. After 15 min. of incubation, ^14 C-uridine (0.05 μCi/ml.) or ^14 C-thymidine (0.05 μCi/ml.) was added and incubated at 37° C. for 60 min. Trichloroacetic acid (TCA) (10%) was added to the incubation medium to stop the reaction and precipitate the acid-insoluble materials, and then the precipitate was washed three times with 5 to 10% […]. The radioactivity was measured and expressed as 50% inhibition concentration of incorporation.

L1210 leukemia = experiment: Antitumor activity in BDF1 mice inoculated with L1210 leukemia cells (Table 6); assay type: in vivo; conditions: once daily for 10 days
Description: As an example, BDF1 mice were inoculated intraperitoneally with 1×10^6 cells/mouse of L1210 leukemia cells.

[1] = system: NADPH-cytochrome P450 reductase; experiment: Stability on rat hepatic NADPH-cytochrome P450 reductase: 7-deoxyaglycone formed (Table 7); assay type: in vitro ADME; conditions: 25° C., 25 min., nitrogen; substrate 0.1 mM, NADPH 0.2 mM, enzyme 4.6 μg./ml, pH 8.0
Experimental: C. The marked antitumor effects seen from A and B above were confirmed by the stability of the test compounds on the inactivation by hepatic NADPH-cytochrome P450 reductase. Specifically, NADPH-cytochrome P450 reductase purified from rat liver homogenate was incubated with the tetrahydropyranyl ether derivatives of formula I' at 25° C. for 25 min. in nitrogen gas phase, and the incubation product formed, 7-deoxyaglycone, was determined as shown in Table 7.

[2] = system: Bacillus cereus ATCC 10702; experiment: Minimum inhibitory concentration, broth dilution method (Table 3); assay type: cell-based; conditions: for MIC: ATCC10702
Description: (§1) To illustrate such activity, minimum inhibitory concentrations (as determined by the broth dilution method) of representative compounds are shown in Table 3.

Bacillus megaterium APF = experiment: as above; assay type: cell-based
Description: as §1

[3] = system: Bacillus subtillis NRRLB-558; experiment: as above; assay type: cell-based; conditions: for MIC: Bacillus, NRRLB558, Bacillus subtillis NRRLB-558
Description: as §1

Candida albicans = experiment: as above; assay type: cell-based
Description: as §1

[4] = system: Corynebacterium bovis 1810; experiment: as above; assay type: cell-based
Description: as §1

Escherichia coli NIHJ = experiment: as above; assay type: cell-based
Description: as §1

[5] = system: Micrococcus flavus FDA 16; experiment: as above; assay type: cell-based; conditions: for MIC: Micrococcus flavus, FDA16, Micrococcus flavus FDA 16
Description: as §1

[6] = system: Mycobacterium smegmatis ATCC 607; experiment: as above; assay type: cell-based; conditions: for MIC: Mycolicibacterium smegmatis, ATCC607
Description: as §1

[7] = system: Pseudomonas aeruginosa A3; experiment: as above; assay type: cell-based; conditions: for MIC: Pseudomonas aeruginosa, A3, Pseudomonas aeruginosa A3
Description: as §1

Sarcina lutea PCI 1001 = experiment: as above; assay type: cell-based; conditions: for MIC: Micrococcus luteus, PCI1001
Description: as §1

Staph. aureus FDA 209P = experiment: as above; assay type: cell-based; conditions: for MIC: Staphylococcus aureus, FDA209P
Description: as §1

Staph. aureus Smith = experiment: as above; assay type: cell-based
Description: as §1

[8] = thymidine, read-out: 50% Inhibition Concentration of 14C-Thymidine Incorporation
[9] = uridine, read-out: 50% Inhibition Concentration of 14C-Uridine Incorporation

Row | Structure (SMILES) | inhibition at 0.1 µg/mL (L1210 leukemia cells) | inhibition at 0.5 µg/mL (L1210 leukemia cells) | IC50 (L1210 cells; [8]) | IC50 (L1210 cells; [9]) | Antitumor Activity (T/C, prolongation rate of survival day) (L1210 leukemia; 0.15 mg./kg./day i.p.) | Antitumor Activity (T/C, prolongation rate of survival day) (L1210 leukemia; 0.3 mg./kg./day i.p.) | Antitumor Activity (T/C, prolongation rate of survival day) (L1210 leukemia; 0.6 mg./kg./day i.p.) | Antitumor Activity (T/C, prolongation rate of survival day) (L1210 leukemia; 1.25 mg./kg./day i.p.) | Antitumor Activity (T/C, prolongation rate of survival day) (L1210 leukemia; 2.5 mg./kg./day i.p.) | Antitumor Activity (T/C, prolongation rate of survival day) (L1210 leukemia; 5 mg./kg./day i.p.) | Product (7-Deoxyaglycone) [1] | MIC [2] | MIC [3] | MIC (Candida albicans) | MIC [4] | MIC (Escherichia coli NIHJ) | MIC [5] | MIC [6] | MIC [7] | MIC (Sarcina lutea PCI 1001) | further results
1 | COc1cccc2c1C(=O)c1c(O)c3c(c(O)c1C2=O)C[C@@](O)(C(=O)COC1CCCCO1)C[C@@H]3O[C@H]1C[C@H](N)[C@H](OC2CCCCO2)[C@H](C)O1 (single isomer, unassigned; isomer a) [4',14-di-O-PAa, 4',14-bis(O-tetrahydropyranyl)adriamycin (isomer a)] | 37.5% | 80.8% | 0.55 µg/mL (≈ 0.773 µM) | 0.23 µg/mL (≈ 0.323 µM) | 96% | 103% | 96% | 109% | 115% | 154% | 13.1 nmoles/tube |  |  |  |  |  |  |  |  |  | 
2 | COc1cccc2c1C(=O)c1c(O)c3c(c(O)c1C2=O)C[C@@](O)(C(=O)CO)C[C@@H]3O[C@H]1C[C@H](N)[C@H](OC2CCCCO2)[C@H](C)O1 (single isomer, unassigned; isomer a) [4'-O-PAa, 4'-O-tetrahydropyranyl adriamycin (isomer a)] | 65.9% | 81.1% | 0.37 µg/mL (≈ 0.59 µM) | 0.2 µg/mL (≈ 0.319 µM) | 127% | 120% | 187% | 180% | 173% |  |  | 6.25 µg/mL (≈ 9.96 µM) | 3.12 µg/mL (≈ 4.97 µM) | > 100 µg/mL | 3.12 µg/mL (≈ 4.97 µM) | > 100 µg/mL | 3.12 µg/mL (≈ 4.97 µM) | 100 µg/mL (≈ 159 µM) | > 100 µg/mL | 0.78 µg/mL (≈ 1.24 µM) | MIC (Bacillus megaterium APF; Priestia megaterium): 3.12 µg/mL (≈ 4.97 µM); MIC (Staph. aureus FDA 209P): 6.25 µg/mL (≈ 9.96 µM); MIC (Staph. aureus Smith; Staphylococcus aureus): 6.25 µg/mL (≈ 9.96 µM)
3 | COc1cccc2c1C(=O)c1c(O)c3c(c(O)c1C2=O)C[C@@](O)(C(=O)CO)C[C@@H]3O[C@H]1C[C@H](N)[C@H](OC2CCCCO2)[C@H](C)O1 (single isomer, unassigned; isomer b) [4'-O-PAb, 4'-O-tetrahydropyranyl adriamycin (isomer b)] |  |  |  |  | 113% | 160% | 293% | > 373% | > 360% | > 375% |  |  |  |  |  |  |  |  |  |  | Minimum Inhibitory Concentration (MIC) [2]: 6.25 µg/mL; Minimum Inhibitory Concentration (MIC) (Bacillus megaterium APF): 3.12 µg/mL; Minimum Inhibitory Concentration (MIC) ([3]; Bacillus subtillis NRRLB-558): 3.12 µg/mL; Minimum Inhibitory Concentration (MIC) (Candida albicans): > 50 µg/mL; Minimum Inhibitory Concentration (MIC) [4]: 3.12 µg/mL; Minimum Inhibitory Concentration (MIC) (Escherichia coli NIHJ): > 100 µg/mL; Minimum Inhibitory Concentration (MIC) ([5]; Micrococcus flavus FDA 16): 3.12 µg/mL; Minimum Inhibitory Concentration (MIC) [6]: 100 µg/mL; Minimum Inhibitory Concentration (MIC) ([7]; Pseudomonas aeruginosa A3): > 100 µg/mL; Minimum Inhibitory Concentration (MIC) (Sarcina lutea PCI 1001): 0.78 µg/mL; Minimum Inhibitory Concentration (MIC) (Staph. aureus FDA 209P): 6.25 µg/mL; Minimum Inhibitory Concentration (MIC) (Staph. aureus Smith): 6.25 µg/mL; Inhibition Rate (growth) (L1210 leukemia cells; 0.1 μg./ml.): 78.1%; Inhibition Rate (growth) (L1210 leukemia cells; 0.5 μg./ml.): 92.9%; 50% Inhibition Concentration of 14C-Thymidine Incorporation (L1210 cells; thymidine): 0.50 µg/mL; 50% Inhibition Concentration of 14C-Uridine Incorporation (L1210 cells; uridine): 0.24 µg/mL
4 | COc1cccc2c1C(=O)c1c(O)c3c(c(O)c1C2=O)C[C@@](O)(C(C)=O)C[C@@H]3O[C@H]1C[C@H](N)[C@H](OC2CCCCO2)[C@H](C)O1 (single isomer, unassigned; isomer a) [4'-O-PDa, 4'-O-tetrahydropyranyl daunomycin (isomer a)] | 79.2% | 95% | 0.28 µg/mL (≈ 0.458 µM) | 0.13 µg/mL (≈ 0.213 µM) | 90% | 96% | 115% | 122% | > 320% | > 320% | 37.3 nmoles/tube | 6.25 µg/mL (≈ 10.2 µM) | 3.12 µg/mL (≈ 5.1 µM) | > 50 µg/mL | 0.78 µg/mL (≈ 1.28 µM) | > 100 µg/mL | 0.78 µg/mL (≈ 1.28 µM) | 6.25 µg/mL (≈ 10.2 µM) | > 100 µg/mL | 0.39 µg/mL (≈ 0.638 µM) | Minimum Inhibitory Concentration (MIC) (Bacillus megaterium APF): 6.25 µg/mL; MIC (Staph. aureus FDA 209P): 6.25 µg/mL (≈ 10.2 µM); Minimum Inhibitory Concentration (MIC) (Staph. aureus Smith): 12.5 µg/mL
5 | COc1cccc2c1C(=O)c1c(O)c3c(c(O)c1C2=O)C[C@@](O)(C(=O)COC1CCCCO1)C[C@@H]3O[C@H]1C[C@H](N)[C@H](OC2CCCCO2)[C@H](C)O1 (single isomer, unassigned; isomer b) [4',14-di-O-PAb, 4',14-bis(O-tetrahydropyranyl)adriamycin (isomer b)] |  |  |  |  | 115% | 96% | 103% | 103% | 109% | 161% | 15.8 nmoles/tube |  |  |  |  |  |  |  |  |  | Inhibition Rate (growth) (L1210 leukemia cells; 0.1 μg./ml.): 25.5%; Inhibition Rate (growth) (L1210 leukemia cells; 0.5 μg./ml.): 72.1%; 50% Inhibition Concentration of 14C-Thymidine Incorporation (L1210 cells; thymidine): 0.97 µg/mL; 50% Inhibition Concentration of 14C-Uridine Incorporation (L1210 cells; uridine): 0.24 µg/mL
6 | COc1cccc2c1C(=O)c1c(O)c3c(c(O)c1C2=O)C[C@@](O)(C(=O)COC1CCCCO1)C[C@@H]3O[C@H]1C[C@H](N)[C@H](O)[C@H](C)O1 (stereo partly drawn) [Example 14-O-PA, 14-O-tetrahydropyranyl adriamycin] | 7.6% | 58.3% | 0.42 µg/mL (≈ 0.669 µM) | 0.17 µg/mL (≈ 0.271 µM) | 103% | 110% | 113% | 126% | 130% | 142% | 18.4 nmoles/tube |  |  |  |  |  |  |  |  |  | 
